The values below come from US7112579B2, “26,27-Homologated-20-EPI-2-alkyl-19-nor-vitamin D compounds” (Wisconsin Alumni Research Foundation, priority 1997, dated 2006).

pEC50: −log10 of the molar value. “And” between values parts separate entries of the source, which are not always exact repeats. Identical values can stand only once. Like-named read-outs stand apart in the source and are kept apart here. Marks after values point to notes of the source that are not given here.

The subject of assay [1] is serum calcium (bone calcium mobilization). Kind of assay: Serum calcium (bone calcium mobilization), chronic doses 7 days i.p., vitamin D-deficient rats. Format: in vivo, rat. The settings on record: for bone calcium mobilization (serum calcium) activity, in words: chronic 7 days, 130 and/or 260 pmol/day. How it is done: (§1) Male weanling rats were obtained from Sprague Dawley Co. (Indianapolis, Ind.) and fed a 0.47% calcium, 0.3% phosphorus vitamin D-deficient diet for 1 week and then given the same diet containing 0.02% calcium, 0.3% phosphorus for 2 weeks. During the last week they were given the indicated dose of compound by intraperitoneal injection in 0.1 ml 95% propylene glycol and 5% ethanol each day for 7 days. The control animals received only the 0.1 ml of 95% propylene glycol, 5% ethanol. Twenty-four hours after the last dose, the rats were sacrificed and intestinal calcium transport was determined by everted sac technique as previously described and serum calcium determined by atomic absorption spectrometry on a model 3110 Perkin Elmer instrument (Norwalk, Conn.). There were 5 rats per group and the values represent mean±SEM.
as §1, with “With respect to the data in Tables 3 and 4, male” for “Male”, “atormic” for “atomic”

For assay [2], the system named is intestinal calcium transport. Kind of assay: Intestinal calcium transport (everted sac), chronic doses 7 days i.p., vitamin D-deficient rats. Format: in vivo, rat. The settings on record: for intestinal calcium transport activity, in words: chronic 7 days, 130 and/or 260 pmol/day. The protocol: as §1
as §1, with “With respect to the data in Tables 3 and 4, male” for “Male”, “atormic” for “atomic”

Assay [3] has as its system intestinal calcium transport. Kind of assay: Intestinal calcium transport after a single intrajugular dose, vitamin D-deficient rats. Format: in vivo, rat. The settings on record: Table 2, single intrajugular dose 650 pmol, 24 h, mean±SEM. How it is done:
(§2) Male Holtzman strain weanling rats were obtained from the Sprague Dawley Co. (Indianapolis, Ind.) and fed the 0.47% calcium, 0.3% phosphorus diet described by Suda et al. (J. Nutr. 100, 1049–1052, 1970) for 1 week and then fed the same diet containing 0.02% calcium and 0.3% phosphorus for 2 additional weeks. At this point, they received a single intrajugular injection of the indicated dose dissolved in 0.1 ml of 95% propylene glycol/5% ethanol. Twenty-four hours later they were sacrificed and intestinal calcium transport and serum calcium were determined as described in Table 1. The dose of the compounds was 650 pmol and there were 5 animals per group. The data are expressed as mean±SEM.

In assay [4] the test system is human promyelocyte HL-60 cells. In words: Differentiation of HL-60 promyelocytes into monocytes (NBT reduction). Format: cell-based. The settings on record: for induction of differentiation of HL-60 cells to monocytes, in words: FIGS. 2, 4, 6, comparison in words; for HL-60 Differentiation ED50: concentration inducing 50% maturation (NBT); for HL-60 Differentiation Activity ratio: analog average ED50 / ED50 for 1α,25-(OH)2D3. The text has this:
In the next assay, the cellular activity of the synthesized compounds was established by studying their ability to induce differentiation of human promyelocyte HL-60 cells into monocytes.

Assay [5] has as its system serum calcium (bone calcium mobilization). In words: Serum calcium (bone calcium mobilization) after a single intrajugular dose, vitamin D-deficient rats. The settings on record: Table 2, single intrajugular dose 650 pmol, 24 h, mean±SEM. Format: in vivo, rat. How it is done: as §2
Assay [6] relates to bone calcium mobilization (serum Ca). Kind of assay: Bone calcium mobilization (serum Ca) in vitamin D-deficient rats on a low-calcium diet (3 weeks), 7 daily i.p. doses. Format: in vivo, rat.
The subject of assay [7] is intestinal calcium transport. Kind of assay: Support of intestinal calcium transport in vitamin D-deficient rats on a low-calcium diet (3 weeks), 7 daily i.p. doses. Format: in vivo, rat.
Assay [8] has as its target T1, porcine intestinal vitamin D receptor (Sus scrofa, UniProt A3RGC1).
T1 construct: from tissue; host or cells: porcine intestine
T1 sequence (A3RGC1 1-427): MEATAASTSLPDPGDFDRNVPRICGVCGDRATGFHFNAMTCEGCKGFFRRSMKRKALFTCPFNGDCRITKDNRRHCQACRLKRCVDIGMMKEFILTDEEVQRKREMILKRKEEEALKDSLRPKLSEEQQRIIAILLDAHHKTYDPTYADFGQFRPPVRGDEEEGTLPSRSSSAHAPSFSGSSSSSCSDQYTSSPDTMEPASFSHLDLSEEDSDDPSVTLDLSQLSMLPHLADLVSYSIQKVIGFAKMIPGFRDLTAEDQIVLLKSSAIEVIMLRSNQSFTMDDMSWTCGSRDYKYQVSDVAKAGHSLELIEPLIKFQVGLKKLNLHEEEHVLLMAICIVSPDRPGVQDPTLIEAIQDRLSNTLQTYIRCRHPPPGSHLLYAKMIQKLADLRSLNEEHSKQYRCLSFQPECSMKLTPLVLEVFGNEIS
In words: Competitive binding to the porcine intestinal vitamin D receptor ([3H]-1,25-(OH)2-D3 displacement). As to conditions: for VDR Binding ratio: analog average ED50 / ED50 for 1α,25-(OH)2D3; for pEC50: concentration for 50% displacement of radiolabeled 1α,25-(OH)2D3, read-out: VDR Binding ED50. Details: species or system pig.

[9] abbreviates: Table 1, 130 pmol/day/7 days i.p., mean±SEM, 5 rats.
Where [10] appears, read: Table 1, 260 pmol/day/7 days i.p., mean±SEM, 5 rats.
[11] abbreviates: listed as 2-Methyl (α and β mixture)-19-Nor-20S-1,25-(OH)2D3.
The mark [12] stands for this setting: Table 4, 260 pmol/day/7 days i.p., mean±SEM.
Where [13] appears, read: Table 5, 260 pmol/day/7 days i.p.
Setting [14] is: Table 7 panel 1, 260 pmol daily x 7 i.p.
Where [15] appears, read: Table 7 panel 2, 260 pmol daily x 7 i.p.
Setting [16] is: Table 9 panel 1, 260 pmol daily x 7 i.p.
Where [17] appears, read: Table 9 panel 2, 260 pmol daily x 7 i.p.
[18] abbreviates: Table 9 panel 1, 32 pmol daily x 7 i.p.
The mark [19] stands for this setting: Table 9 panel 1, 65 pmol daily x 7 i.p.
Setting [20] is: Table 7 panel 2, 65 pmol daily x 7 i.p.
Setting [21] is: Table 7 panel 1, 32 pmol daily x 7 i.p.
Setting [22] is: Table 7 panel 1, 65 pmol daily x 7 i.p.
[23] abbreviates: listed as α and β isomers of 2-methyl-19-nor-1,25-(OH)2D3.
[24] abbreviates: listed as 2-Methyl (α and β mixture)-19-Nor-1,25-(OH)2D3.

Take `CC(CCCC(C)(C)O)C1CCC2C(=CC=C3CC(O)C(C)C(O)C3)CCCC21C` (mixture of isomers) [2-Methyl (α and β) 19-Nor-20S-1,25-(OH)2D3] [mixture of 2α and 2β-methyl-19-nor-20S-1α,25-dihydroxyvitamin D3]: the “Serum Calcium” value amounted to 9.6 ± 0.1 mg/100 ml in assay [1] (setting [9]); 9.6 mg/100 ml in assay [1] (Table 1, 130 pmol/day/7 days i.p., mean±SEM, 5 rats, listed as 2-methyl-(α and β)-19-nor-20S-1,25-(OH)2D3); 12.2 ± 0.3 mg/100 ml in assay [1] (setting [10]); 12.2 mg/100 ml in assay [1] (Table 1, 260 pmol/day/7 days i.p., mean±SEM, 5 rats, listed as 2-methyl-(α and β)-19-nor-20S-1,25-(OH)2D3); 8.1 ± 0.3 mg/100 ml in assay [5] (setting [11]). The “bone calcium mobilization (serum calcium) activity, in words” value in assay [1] is on record as “much higher than that of the native hormone”. For the same compound, the “Intestinal Calcium Transport (S/M)” value is on record as 5.0 ± 0.9 S/M in assay [2] (setting [9]), 6.9 ± 0.5 S/M in assay [2] (setting [10]) and 6.7 ± 0.6 S/M in assay [3] (setting [11]). Besides, the “intestinal calcium transport activity, in words” value in assay [2] is given as “no significant change in intestinal calcium transport at 130 pmol dose level”. Besides, the “induction of differentiation of HL-60 cells to monocytes, in words” value in assay [4] (listed as α and β derivatives of 2-methyl-19-nor-20S-1,25-(OH)2D3) is reported as “extremely potent”.
Consider `C=C1/C(=C\C=C2/CCC[C@]3(C)[C@@H]([C@H](C)CCCC(C)(C)O)CC[C@@H]23)C[C@@H](O)C[C@@H]1O` [1α,25-(OH)2D3, 1α,25-dihydroxyvitamin D3, reference compound], for which the “Serum Calcium” value in assay [1] (Table 1, 260 pmol/day/7 days i.p., mean±SEM, 5 rats, listed as 1,25-(OH)2D3) is 7.2 mg/100 ml and 7.2 ± 0.5 mg/100 ml; in assay [1] (Table 3, 260 pmol/day/7 days i.p., mean±SEM, listed as 1,25-(OH)2D3) it was 6.6±0.4 mg/100 ml; in assay [1] (setting [12]), 6.1 ± 0.5 mg/100 ml; in assay [1] (setting [13]), 5.2 ± 0.1 mg/100 ml; in assay [5], 5.7 ± 0.2 mg/100 ml. Besides, the “Intestinal Calcium Transport (S/M)” value was 6.2 ± 0.4 S/M in assay [2] (setting [10]); 4.6 ± 0.2 S/M in assay [2] (Table 3, 260 pmol/day/7 days i.p., mean±SEM); 5.6 ± 1.3 S/M in assay [2] (setting [12]); 6.6 ± 0.5 S/M in assay [2] (setting [13]); 5.8 ± 0.3 S/M in assay [3]. Moreover, the “HL-60 Differentiation ED50” value in assay [4] (Table 6) and in assay [4] (Table 8) was 4 nM throughout. The “Serum Ca (mean ± SEM)” value was 5.6 ± 0.2^c in assay [6] (setting [14]), 6.3 ± 0.2^c in assay [6] (setting [15]), 5.6 ± 0.2^c in assay [6] (setting [16]) and 6.3 ± 0.2^c in assay [6] (setting [17]). The “Ca Transport S/M (mean ± SEM)” value in assay [7] (setting [14]) is given as 7.2 ± 0.6^c S/M; in assay [7] (setting [15]) it was 5.0 ± 0.4^c S/M; in assay [7] (setting [16]), 7.2 ± 0.6^c S/M; in assay [7] (setting [17]) it was 5.0 ± 0.4^c S/M.
Regarding `CC1[C@H](O)CC(=C/C=C2\CCC[C@@]3(C)C2CCC3[C@@H](C)CCCC2(O)CCCC2)C[C@H]1O` (stereo partly drawn) [Compound 48, 20(S)-1α,25-Dihydroxy-26,27-dimethylene-2α-methyl-19-norvitamin D3], the “VDR Binding ratio” value in assay [8] (Table 8) was determined as 4.0. The pEC50 in assay [8] (Table 8) is 8.46. Also, the “HL-60 Differentiation Activity ratio” value in assay [4] (Table 8) worked out at 0.01. Besides, the “HL-60 Differentiation ED50” value in assay [4] (Table 8) came to 0.044 nM. In addition, the “Serum Ca (mean ± SEM)” value is given as 6.9 ± 0.5^d^1 in assay [6] (setting [18]) and 9.0 ± 0.3^d^2 in assay [6] (setting [19]). Moreover, the “Ca Transport S/M (mean ± SEM)” value in assay [7] (setting [18]) is reported as 7.9 ± 1.0^d^1 S/M; in assay [7] (setting [19]), 9.0 ± 1.0^d^2 S/M.
As to `CCC(O)(CC)CCCC(C)C1CCC2C(=CC=C3CC(O)C(C)C(O)C3)CCCC21C` [Compound 37, 20(S)-1α,25-Dihydroxy-2β-methyl-26,27-dihomo-19-norvitamin D3], the “VDR Binding ratio” value in assay [8] (Table 6) was 5.5. The pEC50 in assay [8] (Table 6) is 8.32. The “HL-60 Differentiation Activity ratio” value in assay [4] (Table 6) came out at 0.03. In assay [4] (Table 6), the “HL-60 Differentiation ED50” value was 0.11 nM. For the same compound, the results for the “Serum Ca (mean ± SEM)” value in assay [6] (setting [20]) and in assay [6] (setting [15]) were 5.0 ± 0.0^d^1 and 9.9 ± 0.3^d^2, respectively. Moreover, the “Ca Transport S/M (mean ± SEM)” value is listed as 4.7 ± 0.6^d^1 S/M in assay [7] (setting [20]) and 5.2 ± 0.6^d^2 S/M in assay [7] (setting [15]).
Take `CCC(O)(CC)CCCC(C)C1CCC2C(=CC=C3CC(O)C(C)C(O)C3)CCCC21C` [Compound 36, 20(S)-1α,25-Dihydroxy-2α-methyl-26,27-dihomo-19-nor-vitamin D3]: in assay [8] (Table 6), the “VDR Binding ratio” value amounted to 3.6 and the pEC50 is 8.51. For the same compound, in assay [4] (Table 6), the “HL-60 Differentiation Activity ratio” value worked out at 0.01 and the “HL-60 Differentiation ED50” value was 0.06 nM. Also, the “Serum Ca (mean ± SEM)” value in assay [6] (setting [21]) is given as 5.9 ± 0.2^d^1. The “Serum Ca (mean ± SEM)” value in assay [6] (setting [22]) is 9.3 ± 0.2^d^2. Also, the “Ca Transport S/M (mean ± SEM)” value in assay [7] (setting [21]) is 5.8 ± 0.4^d^1 S/M. Also, the “Ca Transport S/M (mean ± SEM)” value in assay [7] (setting [22]) is recorded as 8.4 ± 0.8^d^2 S/M.
On to `CC(CCCC(C)(C)O)C1CCC2C(=CC=C3CC(O)C(C)C(O)C3)CCCC21C` (mixture of isomers) [2-Methyl (α and β) 19-Nor-1,25-(OH)2D3, mixture of 2α and 2β-methyl-19-nor-1α,25-dihydroxyvitamin D3], for which the “Serum Calcium” value in assay [1] (setting [9]) was 6.1 ± 0.1 mg/100 ml; in assay [1] (setting [10]), 6.7 ± 0.4 mg/100 ml; in assay [5] (setting [24]) it was 5.4 ± 0.1 mg/100 ml. The “bone calcium mobilization (serum calcium) activity, in words” value in assay [1] (setting [23]) was “strong bone calcium mobilization at both dose levels”. The “Intestinal Calcium Transport (S/M)” value in assay [2] (setting [9]) was found to be 5.0 ± 0.3 S/M; in assay [2] (setting [10]), 5.3 ± 0.6 S/M; in assay [3] (setting [24]), 3.6 ± 0.4 S/M. The “intestinal calcium transport activity, in words” value in assay [2] (setting [23]) is reported as “no intestinal calcium transport activity”. The “induction of differentiation of HL-60 cells to monocytes, in words” value in assay [4] is on record as “activity similar to 1,25-(OH)2D3”.
